The subject of one series is COX-2 promoter. Briefly: COX-2 promoter-based reporter assay (pCOX-2-Luc) in DENV-infected Huh-7 cells. Format: cell-based, Human. To be noted: increasing concentrations, three days. As for the experimental part: We also used a COX-2 promoter-based reporter assay to evaluate the inhibitory effect of 19a on COX-2 at the transcriptional level. The pCOX-2-Luc, a plasmid encoding firefly luciferase under the control of the COX-2 promoter, was transfected into Huh-7 cells or DENV-infected Huh-7 cells and, then, these plasmid-transfected cells were incubated with 19a at increasing concentrations for three days.
Huh-7-DV-Fluc cells were seeded in 24-well plates at a density of 2 × 10^4 cells per well, and treated with the 3-arylquinoxaline compounds at two concentrations (1 and 10 μM) or 0.1% DMSO as control. After three days of incubation, the luciferase activity assay was performed using the Bright-Glo Luciferase assay system (Promega, Madison, WI, USA) according to the manufacturer’s instructions. […] After three days, protein and RNA levels were analyzed by Western blotting with a specific antibody as previously described respectively.
Figure 4 Inhibitory effect of 19a on DENV-induced cyclooxygenase-2 (COX-2) expression in Huh-7 cells. […] The results are expressed as the means ± standard deviations (SD) of triplicate experiments.
In general terms: In a reporter assay the amount or activity of a reporter protein is the signal.

For series [1], the system named is DENV. As to the kind of experiment: DENV RNA levels by RT-qPCR in DENV-infected Huh-7 cells. Format: cell-based, dengue virus. Conditions: 0.5, 1, 5 and 10 μM, three days. From the text: (§1) To further confirm the anti-DENV effect of compound 19a, we treated compound 19a at indicated concentrations in Huh-7 cells for three days.
Total cellular RNA samples were extracted after three days of compound treatment through a Total RNA Miniprep Purification Kit (GeneMark Biolab, Taiwan) following the manufacturer’s instructions, and then transcribed to complementary DNA (cDNA) with Moloney murine leukemia virus (M-MLV) reverse transcriptase (Promega, USA). The levels of DENV-2 replication and COX-2 were analyzed by RT-PCR as described previously with the following specific primers: a forward primer, 5′–[…] AGC–3′, and a reverse primer, 5′–[…]–3′, targeting the DENV-2 NS5 gene 44. DENV-2 and COX-2 RNA levels were normalized to the cellular glyceraldehyde-3-phosphate dehydrogenase (GAPDH) RNA level of each sample.
Figure 2 Inhibition of dengue virus (DENV) RNA expression in DENV-infected Huh-7 cells by 19a. Huh-7 cells were treated with 0.5, 1, 5, and 10 μM 19a for three days. Total RNA was extracted and quantified DENV RNA levels by RT-qPCR. DENV RNA expression was normalized by cellular glyceraldehyde-3-phosphate dehydrogenase (GAPDH) mRNA. Treatment with 0.1% dimethyl sulfoxide (DMSO) served as a mock control. The results are expressed as the means ± standard deviations (SD) of triplicate experiments.
Background: Quantitative PCR measures a nucleic acid by following its amplification.

Series [2] can be described thus: Cytotoxicity assay (XTT method). Format: cell-based, Human. Conditions: human, mean ± SD. Here is the method:
(§2) For cytotoxicity tests, run in parallel with antiviral assays, plates at an initial density of 5 × 10^3 cells/well were treated with or without serial dilutions of test compounds. Cell viability was determined after 72 h at 37 °C in a humidified CO2 (5%) atmosphere by the (2,3-bis[2-methyloxy-4-nitro-5-sulfophenyl]-2H-tetrazolium-5-carboxanilide) (XTT) method.
(In general: Formazan colour is commonly taken as a measure of viable cells.)

The test system of another series is Huh-7 cells. As to the kind of experiment: Cytotoxicity assay (XTT method). Format: cell-based, Human. Here is the method: as §2
Series [3] has as its system DENV. Briefly: DENV protein synthesis by Western blotting in Huh-7 cells. To be noted: 0.5, 1, 2.5 and 5 μM, three days. It is filed as cell-based, dengue virus. Here is the method:
as §1
Huh-7 cells were seeded in 24-well plates at a density of 5 × 10^4 cells per well overnight and treated with indicated reagent at proper concentrations for three days. Cells were washed with cold phosphate-buffered saline (PBS) and lysed by radioimmunoprecipitation assay (RIPA) lysis buffer (50 mM Tris-HCl, pH 7.5, 150 mM NaCl, 1% Nonidet P-40, 2 mM ethylenediaminetetraacetic acid (EDTA), 1 mM ethylene glycol bis(2-aminoethyl)tetraacetic acid (EGTA), 1 mM NaVO3, 10 mM NaF, 1 mM dithiothreitol (DTT), 1 mM phenylmethylsulfonyl fluoride (PMSF), 25 μg/mL aprotinin, and 25 μg/mL leupeptin) and stored at −20 °C. The protein concentration was determined by the Bradford method. Then, 10-μg protein samples were separated by 10% SDS-PAGE and transferred onto a polyvinylidene fluoride (PVDF) membrane. The membrane was blocked with 5% non-fat dried milk and incubated with specific antibodies against GAPDH (1:10000, Genetex, Irvine, CA, USA) and COX-2 (1:1000; Cayman Chemical, Ann Arbor, ML, USA). […] The blotting signal was developed using an enhanced chemiluminescence (ECL) detection kit (PerkinElmer, Waltham, MA, USA) and was counted by the software Quantity One (Bio-Rad, Hercules, CA, USA). […]

Entries after “also recorded” stand apart in the source; their conditions may differ.

The melting point is the temperature of the solid-liquid transition. As a reminder, the viability is the share of living cells, or the viability signal relative to a control.

Molecule `COc1ccc(-c2nc3ccccc3nc2C(O)c2ccccc2)cc1` (stereo not drawn) [Compound 19a, [3-(4-Methoxyphenyl)quinoxalin-2-yl](phenyl)methanol] showed a melting point of 160.4 to 161.9 °C. For the same molecule, the “DENV-elevated COX-2 promoter activity” value in the series with COX-2 promoter is reported as “dose-dependently decreased”. For the same molecule, the “DENV RNA replication (RT-qPCR)” value in the series on DENV [1] is reported as “dose-dependently reduced”. For the same molecule, in series [2] (Huh-7 cells, 20 μM, 72 h, XTT, read-out: Huh-7 Cell % viability at 20 μM), the viability at 72 h, 20 µM came out at 99.7 ± 1.65%. Moreover, the viability at 72 h, 200 µM in series [2] (Huh-7 cells, 200 μM, 72 h, XTT, read-out: Huh-7 Cell % viability at 200 μM) stood at 85%. Further, the CC50 at 72 h in series [2] (uninfected Huh-7 cells, read-out: CC50 (concentration causing a 50% growth inhibition of uninfected Huh-7 cells)) is more than 200 µM. Further, in the series on Huh-7 cells (200 μM, 72 h, XTT, mean ± SD), the “Huh-7 Cell % viability at 200 μM” value was 85.26 ± 5.63%. Further, in the series on Huh-7 cells (Huh-7 cells), the cytotoxicity in words result is reported as “non-cytotoxic; also recorded: no significant cell cytotoxicity”. Besides, in the series with DENV [3], the “DENV protein synthesis (Western blotting)” value is given as “dose-dependently reduced”.

The values above are taken from publication PMC6801405, “Discovery of 3-Arylquinoxaline Derivatives as Potential Anti-Dengue Virus Agents” (International Journal of Molecular Sciences, 2019).
